{"source": "patent US20040136904A1", "about": "“Dry powder compositions comprising labelled particles for inhalation” (priority 2001, published 2004)", "origin": "cited, not measured here", "conditions": "in vivo", "data": [{"smiles": "[Na+].[O]=[Tc](=[O])(=[O])[O-]", "note": "[sodium pertechnetate]", "values": [{"measurement": "time in which 50% is removed from the surface of the lung", "value": "~10", "unit": "min"}]}]}
